Reference: patent US12129223B2, “Lipids for use in lipid nanoparticle formulations” (Acuitas Therapeutics, Inc., priority 2021, dated 2024)
Each block holds one molecule with its values, some of them ahead of it.

Columns and labels:
[1] = tested on: luciferase expression in the liver; test: Luciferase mRNA in vivo evaluation using lipid nanoparticle compositions; parameters: species or system mice; conditions: LNP with FLuc mRNA, tail vein injection; for Liver Luc @ 0.3 mg/kg: 0.3 mg mRNA/kg; for Liver Luc @ 0.3 mg/kg / Liver Luc @ 1.0 mg/kg: ng luciferase/g liver 4 hours after administration; for Liver Luc @ 1.0 mg/kg: 1.0 mg mRNA/kg; for Liver Luc, *Determined at 0.5 mg/kg: 0.5 mg mRNA/kg (starred cells of the 0.3 mg/kg column), liver 4 hours after administration
Method: A lipid of structure (I), DSPC, cholesterol and PEG-lipid are solubilized in ethanol at a molar ratio of 50:10:38.5:1.5 or 47.5:10:40.7:1.8. Lipid nanoparticles (LNP) are prepared at a total lipid to mRNA weight ratio of approximately 10:1 to 40:1. Briefly, the mRNA is diluted to 0.2 mg/mL in 10 to 50 mM citrate buffer, pH 4 or 10 to 25 mM acetate buffer, pH 4. Syringe pumps are used to mix the ethanolic lipid solution with the mRNA aqueous solution at a ratio of about 1:5 to 1:3 (vol/vol) with total flow rates above 15 mL/min. The ethanol is then removed and the external buffer replaced with PBS by dialysis. Finally, the lipid nanoparticles are filtered through a 0.2 µm pore sterile filter.
Studies are performed in 6-8 week old female C57BL/6 mice (Charles River) 8-10 week old CD-1 (Harlan) mice (Charles River) according to guidelines established by an institutional animal care committee (ACC) and the Canadian Council on Animal Care (CCAC). Varying doses of mRNA-lipid nanoparticle are systemically administered by tail vein injection and animals euthanized at a specific time point (e.g., 4 hours) post-administration. Liver and spleen are collected in pre-weighed tubes, weights determined, immediately snap frozen in liquid nitrogen and stored at −80° C. until processing for analysis.
For liver, approximately 50 mg is dissected for analyses in a 2 mL FastPrep tubes (MP Biomedicals, Solon OH). ¼″ ceramic sphere (MP Biomedicals) is added to each tube and 500 μL of Glo Lysis Buffer—GLB (Promega, Madison WI) equilibrated to room temperature is added to liver tissue. Liver tissues are homogenized with the FastPrep24 instrument (MP Biomedicals) at 2×6.0 m/s for 15 seconds. Homogenate is incubated at room temperature for 5 minutes prior to a 1:4 dilution in GLB and assessed using SteadyGlo Luciferase assay system (Promega). Specifically, 50 μL of diluted tissue homogenate is reacted with 50 μL of SteadyGlo substrate, shaken for 10 seconds followed by 5 minute incubation and then quantitated using a CentroXS^3 LB 960 luminometer (Berthold Technologies, Germany). The amount of protein assayed is determined by using the BCA protein assay kit (Pierce, Rockford, IL). Relative luminescence units (RLU) are then normalized to total μg protein assayed. To convert RLU to ng luciferase a standard curve is generated with QuantiLum Recombinant Luciferase (Promega).
The FLuc mRNA (L-6107) from Trilink Biotechnologies will express a luciferase protein, originally isolated from the firefly, Photinus pyralis. FLuc is commonly used in mammalian cell culture to measure both gene expression and cell viability. It emits bioluminescence in the presence of the substrate, luciferin. This capped and polyadenylated mRNA is fully substituted with 5-methylcytidine and pseudouridine.
Representative compounds of the disclosure shown in Table 2 were formulated using the following molar ratio: 50% cationic lipid/10% distearoylphosphatidylcholine (DSPC)/38.5% Cholesterol/1.5% PEG lipid 2-[2-(ω-methoxy(polyethyleneglycol2000)ethoxy]-N,N-ditetradecyl acetamide) or 47.5% cationic lipid/10% DSPC/40.7% Cholesterol/1.8% PEG lipid. Relative activity was determined by measuring luciferase expression in the liver 4 hours following administration via tail vein injection as described in Example 1 or by measuring the amount of human IgG in mouse serum as described in example 2. The activity was compared at a dose of 1.0 or 0.5 or 0.3 mg mRNA/kg and expressed as ng luciferase/g liver measured 4 hours after administration, as described in Example 1 or as μg IgG/mL serum measured 24 hours after administration, as described in Example 2. Compound numbers in Table 2 refer to the compound numbers of Table 1.

[2] = Determination of pKa of formulated lipids (TNS fluorescence assay in lipid nanoparticles); assay type: physicochemical; conditions: lipid nanoparticles (compound/DSPC/cholesterol/PEG-lipid), lipid formulated in LNP (lipid/DSPC/cholesterol/PEG-lipid), pH at half-maximal intensity
Method: As described elsewhere, the pKa of formulated lipids is correlated with the effectiveness of LNPs for delivery of nucleic acids (see Jayaraman et al, Angewandte Chemie, International Edition (2012), 51(34), 8529-8533; Semple et al, Nature Biotechnology 28, 172-176 (2010)). In some embodiments, the preferred range of pKa is ˜5 to ˜7. The pKa of each lipid is determined in lipid nanoparticles using an assay based on fluorescence of 2-(p-toluidino)-6-napthalene sulfonic acid (TNS). Lipid nanoparticles comprising compound of structure (I)/DSPC/cholesterol/PEG-lipid (50/10/38.5/1.5 or 47.5:10:40.7:1.8 mol %) in PBS at a concentration of 0.4 mM total lipid are prepared using the in-line process as described in Example 1. TNS is prepared as a 100 μM stock solution in distilled water. Vesicles are diluted to 24 μM lipid in 2 mL of buffered solutions containing 10 mM HEPES, 10 mM MES, 10 mM ammonium acetate, and 130 mM NaCl, where the pH ranged from 2.5 to 11. An aliquot of the TNS solution is added to give a final concentration of 1 μM and following vortex mixing fluorescence intensity is measured at room temperature in a SLM Aminco Series 2 Luminescence Spectrophotometer using excitation and emission wavelengths of 321 nm and 445 nm. A sigmoidal best fit analysis is applied to the fluorescence data and the pKa is measured as the pH giving rise to half-maximal fluorescence intensity.

SMILES: CCCCCCCCCCN(CCCCCCCCCC)C(=O)CCCCCCCN(C)CCCCCCCC(=O)N(CCCCCCCCC)CCCCCCCCC [Compound I-59]
- Liver Luc @ 0.3 mg/kg [1]: 10786 ± 1924 ng/g
- Liver Luc @ 1.0 mg/kg [1]: 43489 ± 5698 ng/g
- pKa [2]: 6.27

SMILES: CCCCCCCCCCN(CCCCCCCCCC)C(=O)CCCCCCCN(C)CCCCCCCC(=O)N(CCCCCCCC)CCCCCCCC [Compound I-55, N,N-didecyl-8-((8-(dioctylamino)-8-oxooctyl)(methyl)amino)octanamide]
- Liver Luc @ 0.3 mg/kg [1]: 8244 ± 1599 ng/g
- Liver Luc @ 1.0 mg/kg [1]: 30106 ± 13756 ng/g
- pKa [2]: 6.22

SMILES: CCCCCCCCCCN(CCCCCCCCCC)C(=O)CCCCCCCCCN(CCCCCCCCCC(=O)N(CCCCCCCCCC)CCCCCCCCCC)CCCNc1c(NC)c(=O)c1=O [Compound I-60, 10,10′-((3-((2-(methylamino)-3,4-dioxocyclobut-1-en-1-yl)amino)propyl)azanediyl)bis(N,N-didecyldecanamide)]
- Liver Luc @ 0.3 mg/kg [1]: 2176 ± 162 ng/g
- Liver Luc @ 1.0 mg/kg [1]: 9178 ± 2483 ng/g
- pKa [2]: 6.38

SMILES: CCCCCCCCN(CCCCCCCC)C(=O)CCCCCCCN(C)CCCCCCCC(=O)N(CCCCCCCC)CCCCCCCC [Compound I-7, 8,8′-(methylazanediyl)bis(N,N-dioctyloctanamide)]
- Liver Luc @ 0.3 mg/kg [1]: 16595 ± 836 ng/g
- Liver Luc @ 1.0 mg/kg [1]: 81021 ± 24105 ng/g
- pKa [2]: 6.43

SMILES: CCCCCCCCN(CCCCCCCC)C(=O)CCCCCN(CCO)CCCCCC(=O)N(CCCCCCCC)CCCCCCCC [Compound I-3, 6,6′-((2-hydroxyethyl)azanediyl)bis(N,N-dioctylhexanamide)]
- Liver Luc, *Determined at 0.5 mg/kg [1]: 227 ± 138* ng/g
- pKa [2]: 6.87

SMILES: CCCCCCCCN(CCCCCCCC)C(=O)CCCCCCCCCN(C)CCCCCCCCCC(=O)N(CCCCCCCC)CCCCCCCC [Compound I-8, 10,10′-(methylazanediyl)bis(N,N-dioctyldecanamide)]
- Liver Luc @ 0.3 mg/kg [1]: 8743 ± 2153 ng/g
- Liver Luc @ 1.0 mg/kg [1]: 37220 ± 15377 ng/g
- pKa [2]: 6.02

SMILES: CCCCCCCCCCN(CCCCCCCCCC)C(=O)CCCCCCCN(CCCCCCCC(=O)N(CCCCCCCCCC)CCCCCCCCCC)CCOCCOC [Compound I-46, 8,8′-((2-(2-methoxyethoxy)ethyl)azanediyl)bis(N,N-didecyloctanamide)]
- Liver Luc @ 0.3 mg/kg [1]: 10201 ± 2440 ng/g
- Liver Luc @ 1.0 mg/kg [1]: 52937 ± 8101 ng/g
- pKa [2]: 5.91

SMILES: CCCCCCCCC(CCCCCC)C(=O)N(C)CCCCCCCCN(C)CCCCCCCCN(C)C(=O)C(CCCCCC)CCCCCCCC (stereo not drawn) [Compound I-70, N,N′-((methylazanediyl)bis(octane-8,1-diyl))bis(2-hexyl-N-methyldecanamide)]
- Liver Luc @ 0.3 mg/kg [1]: 7516 ± 1487 ng/g
- Liver Luc @ 1.0 mg/kg [1]: 33238 ± 9902 ng/g
- pKa [2]: 6.17

SMILES: CCCCCCCCCCN(CCCCCCCCCC)C(=O)CCCCCN(C)CCCCCC(=O)N(CCCCCCCCCC)CCCCCCCCCC [Compound I-10, 6,6′-(methylazanediyl)bis(N,N-didecylhexanamide)]
- Liver Luc @ 0.3 mg/kg [1]: 10779 ± 2473 ng/g
- Liver Luc @ 1.0 mg/kg [1]: 22622 ± 8189 ng/g
- pKa [2]: 6.77

SMILES: CCCCC(CC)CN(CC(CC)CCCC)C(=O)CCCCCN(CCCCO)CCCCCC(=O)N(CC(CC)CCCC)CC(CC)CCCC (stereo not drawn) [Compound I-27, 6,6′-((4-hydroxybutyl)azanediyl)bis(N,N-bis(2-ethylhexyl)hexanamide)]
- Liver Luc, *Determined at 0.5 mg/kg [1]: 21 ± 6* ng/g
- pKa [2]: 6.56

More lines, main results first:

- pKa [2]: 6.28
SMILES: CCCCCCCCCCN(CCCCCCCCCC)C(=O)CCCCCCCCCN(CCCCO)CCCCCCCCCC(=O)N(CCCCCCCCCC)CCCCCCCCCC [Compound I-25, 10,10′-((4-hydroxybutyl)azanediyl)bis(N,N-didecyldecanamide)]
- Liver Luc @ 0.3 mg/kg [1]: 20276 ± 3044 ng/g
- Liver Luc @ 1.0 mg/kg [1]: 64656 ± 24090 ng/g

- pKa [2]: 6.22
SMILES: CCCCCCCCCCN(CCCCCCCCCC)C(=O)CCCCCCCCCN(CCCCCCCCCC(=O)N(CCCCCCCCCC)CCCCCCCCCC)CCN(C)C [Compound I-28, 10,10′-((2-(dimethylamino)ethyl)azanediyl)bis(N,N-didecyldecanamide)]
- Liver Luc @ 0.3 mg/kg [1]: 6602 ± 2609 ng/g
- Liver Luc @ 1.0 mg/kg [1]: 13298 ± 4040 ng/g

- pKa [2]: 6.33
SMILES: CCCCCCCCCCN(CCCCCCCCN(C)CCCCCCCCN(CCCCCCCCCC)C(=O)CCCCCCCCC)C(=O)CCCCCCCCC [Compound I-65]
- Liver Luc @ 0.3 mg/kg [1]: 3172 ± 658 ng/g
- Liver Luc @ 1.0 mg/kg [1]: 24740 ± 6297 ng/g

- pKa [2]: 6.83
SMILES: CCCCCCCCCCCCCCCC(=O)N(CCCCCC)CCCCCCN(C)CCCCCCN(CCCCCC)C(=O)CCCCCCCCCCCCCCC [Compound I-9, N,N′-((methylazanediyl)bis(hexane-6,1-diyl))bis(N-hexylpalmitamide)]
- Liver Luc @ 0.3 mg/kg [1]: 4337 ± 1394 ng/g
- Liver Luc @ 1.0 mg/kg [1]: 21023 ± 12693 ng/g

- pKa [2]: 6.24
SMILES: CCCCCCCCCCN(CCCCCCCCCC)C(=O)CCCCCCCCCN(CCCCCCCCCC(=O)N(CCCCCCCCCC)CCCCCCCCCC)CCCn1ccnc1 [Compound I-57, 10,10′-((3-(1H-imidazol-1-yl)propyl)azanediyl)bis(N,N-didecyldecanamide)]
- Liver Luc @ 0.3 mg/kg [1]: 476 ± 134 ng/g
- Liver Luc @ 1.0 mg/kg [1]: 1456 ± 518 ng/g

- pKa [2]: 6.19
SMILES: CCCCCCCCCCN(CCCCCCCCCC)C(=O)CCCCCCCN(C)CCCCCCCC(=O)N(CCCCCCCCCC)CCCCCCCCCC [Compound I-6, 8,8′-(methylazanediyl)bis(N,N-didecyloctanamide)]
- Liver Luc @ 0.3 mg/kg [1]: 20084 ± 5967 ng/g
- Liver Luc @ 1.0 mg/kg [1]: 78367 ± 15904 ng/g

- pKa [2]: 6.27
SMILES: CCCCCCCCCCN(CCCCCCCCCC)C(=O)CCCCCCCCCN(CCO)CCCCCCCCCC(=O)N(CCCCCCCCCC)CCCCCCCCCC [Compound I-20, 10,10′-((2-hydroxyethyl)azanediyl)bis(N,N-didecyldecanamide)]
- Liver Luc, *Determined at 0.5 mg/kg [1]: 879 ± 365* ng/g

- pKa [2]: 6.02
SMILES: CCCCCCCCN(CCCCCCCC)C(=O)CCCCCCCCCN(CCCCCCO)CCCCCCCCCC(=O)N(CCCCCCCC)CCCCCCCC [Compound I-18, 10,10′-((6-hydroxyhexyl)azanediyl)bis(N,N-dioctyldecanamide)]
- Liver Luc @ 0.3 mg/kg [1]: 7115 ± 2087 ng/g
- Liver Luc @ 1.0 mg/kg [1]: 14879 ± 1595 ng/g
